# From ChEMBL document CHEMBL3745645, “Synthesis, in vitro antitumor activity, dihydrofolate reductase inhibition, DNA intercalation and structure-activity relationship studies of 1,3,5-triazine analogues” (Bioorg Med Chem Lett, 2016)
# Calls of active or inactive are those of the source. The calls are words filed in the database; no cut-off is given here.
# Experiments:
# [1] = Cytotoxicity against human SNB75 cells at 10 uM after 48 hrs by SRB assay; format: functional; settings: SNB-75, 48 h, read-out: GI
# [2] = test system: HT-29; test: Cytotoxicity against human HT-29 cells at 10 uM after 48 hrs by SRB assay; format: functional
# [3] = Cytotoxicity against human HL-60(TB) cells after 48 hrs by SRB assay; format: functional; settings: HL-60, 48 h, read-out: LC50 (the source's name)
# [4] = test system: NCI-H226; test: Cytotoxicity against human NCI-H226 cells at 10 uM after 48 hrs by SRB assay; format: functional; settings: NCI-H226, 48 h, read-out: GI
# [5] = test system: KM12; test: Cytotoxicity against human KM12 cells at 10 uM after 48 hrs by SRB assay; format: functional; settings: KM12, 48 h, read-out: GI
# [6] = test system: SR; test: Cytotoxicity against human SR cells after 48 hrs by SRB assay; format: functional
# [7] = test system: CCRF-CEM; test: Cytotoxicity against human CCRF-CEM cells at 10 uM after 48 hrs by SRB assay; format: functional
# [8] = test system: NCI-H460; test: Cytotoxicity against human NCI-H460 cells at 10 uM after 48 hrs by SRB assay; format: functional; settings: NCI-H460, 48 h, read-out: GI
# [9] = Cytotoxicity against human MOLT4 cells after 48 hrs by SRB assay; format: functional; settings: MOLT-4, 48 h, read-out: LC50 (the source's name)
# [10] = test system: SK-MEL-28; test: Cytotoxicity against human SK-MEL-28 cells at 10 uM after 48 hrs by SRB assay; format: functional
# [11] = test system: Malme-3M; test: Cytotoxicity against human MALME-3M cells at 10 uM after 48 hrs by SRB assay; format: functional
# [12] = Cytotoxicity against human HCT116 cells at 10 uM after 48 hrs by SRB assay; format: functional; settings: HCT-116, 48 h, read-out: GI
# [13] = Cytotoxicity against human MOLT4 cells at 10 uM after 48 hrs by SRB assay; format: functional; settings: MOLT-4, 48 h, read-out: GI
# [14] = Cytotoxicity against human SF539 cells at 10 uM after 48 hrs by SRB assay; format: functional; settings: SF-539, 48 h, read-out: GI
# [15] = Cytotoxicity against human RPMI8226 cells after 48 hrs by SRB assay; format: functional; settings: RPMI-8226, 48 h, read-out: LC50 (the source's name)
# [16] = Cytotoxicity against human SNB19 cells at 10 uM after 48 hrs by SRB assay; format: functional; settings: SNB-19, 48 h, read-out: GI
# [17] = target: T1, Dihydrofolate reductase (Homo sapiens, UniProt P00374); test: Inhibition of human recombinant DHFR expressed in Escherichia coli by spectrophotometric analysis
# T1 sequence (P00374 whole entry): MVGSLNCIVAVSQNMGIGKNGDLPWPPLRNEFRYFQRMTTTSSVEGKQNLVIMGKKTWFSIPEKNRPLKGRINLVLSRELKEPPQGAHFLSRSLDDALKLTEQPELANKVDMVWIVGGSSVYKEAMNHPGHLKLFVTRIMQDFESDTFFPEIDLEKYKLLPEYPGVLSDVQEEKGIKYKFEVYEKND
# [18] = Cytotoxicity against human OVCAR8 cells at 10 uM after 48 hrs by SRB assay; format: functional; settings: OVCAR-8, 48 h, read-out: GI
# [19] = test system: NCI-H522; test: Cytotoxicity against human NCI-H522 cells at 10 uM after 48 hrs by SRB assay; format: functional
# [20] = test system: Calf thymus DNA; test: Binding affinity to calf thymus DNA by fluorescence spectrophotometric analysis; format: nucleic-acid assay; settings: Bos taurus
# [21] = Cytotoxicity against human OVCAR3 cells at 10 uM after 48 hrs by SRB assay; format: functional; settings: OVCAR-3, 48 h, read-out: GI
# [22] = Cytotoxicity against human UO31 cells at 10 uM after 48 hrs by SRB assay; format: functional; settings: UO-31, 48 h, read-out: GI
# [23] = test system: SN12C; test: Cytotoxicity against human SN12C cells at 10 uM after 48 hrs by SRB assay; format: functional; settings: read-out: GI
# [24] = Cytotoxicity against human IGROV1 cells after 48 hrs by SRB assay; format: functional; settings: IGROV-1, 48 h, pooled result: one value given for 7 cell lines, strains, targets or settings
# [25] = Cytotoxicity against human IGROV1 cells at 10 uM after 48 hrs by SRB assay; format: functional; settings: IGROV-1, 48 h, read-out: GI
# [26] = Cytotoxicity against human SF268 cells at 10 uM after 48 hrs by SRB assay; format: functional; settings: SF-268, 48 h, read-out: GI
# [27] = test system: 786-0; test: Cytotoxicity against human 786-0 cells at 10 uM after 48 hrs by SRB assay; format: functional
# [28] = test system: SR; test: Cytotoxicity against human SR cells at 10 uM after 48 hrs by SRB assay; format: functional
# [29] = test system: SK-MEL-5; test: Cytotoxicity against human SK-MEL-5 cells at 10 uM after 48 hrs by SRB assay; format: functional; settings: SK-MEL-5, 48 h, read-out: GI
# [30] = test system: MCF7; test: Cytotoxicity against human MCF7 cells at 10 uM after 48 hrs by SRB assay; format: functional; settings: MCF7, 48 h, read-out: GI
# [31] = Cytotoxicity against human Caki1 cells at 10 uM after 48 hrs by SRB assay; format: functional; settings: CAKI-1, 48 h, read-out: GI
# [32] = Cytotoxicity against human RXF393 cells at 10 uM after 48 hrs by SRB assay; format: functional; settings: RXF 393, 48 h, read-out: GI
# [33] = test system: T47D; test: Cytotoxicity against human T47D cells at 10 uM after 48 hrs by SRB assay; format: functional
# [34] = Cytotoxicity against human SKOV3 cells at 10 uM after 48 hrs by SRB assay; format: functional; settings: SK-OV-3, 48 h, read-out: GI
# [35] = test system: MDA-MB-231; test: Cytotoxicity against human MDA-MB-231 cells at 10 uM after 48 hrs by SRB assay; format: functional
# [36] = test system: A498; test: Cytotoxicity against human A498 cells at 10 uM after 48 hrs by SRB assay; format: functional; settings: A498, 48 h, read-out: GI
# [37] = Cytotoxicity against human DU145 cells at 10 uM after 48 hrs by SRB assay; format: functional; settings: DU-145, 48 h, read-out: GI
# [38] = Cytotoxicity against human HOP62 cells at 10 uM after 48 hrs by SRB assay; format: functional; settings: HOP-62, 48 h, read-out: GI
# [39] = Cytotoxicity against human COLO205 cells after 48 hrs by SRB assay; format: functional; settings: COLO 205, 48 h, pooled result: one value given for 7 cell lines, strains, targets or settings
# [40] = test system: MDA-MB-468; test: Cytotoxicity against human MDA-MB-468 cells at 10 uM after 48 hrs by SRB assay; format: functional
structure (smiles),measurement,setting,value
Cc1nc2cc(Nc3nc(Nc4ccc(F)cc4)nc(-c4cccs4)n3)ccc2n1Cc1ccccc1,inhibition of growth at 10 µM,[1],47.8%
same,inhibition of growth at 10 µM,"[2]; HT-29, 48 h, read-out: GI",79.5%
same,CC50,[3],> 100 µM
same,inhibition of growth at 10 µM,[4],35%
same,inhibition of growth at 10 µM,[5],74.8%
same,LC50 (concentration killing 50% of cells),[6],> 100 µM
same,inhibition of growth at 10 µM,[7]; read-out: GI,72.8%
same,inhibition of growth at 10 µM,[8],60.4%
same,CC50,[9],> 100 µM
same,inhibition of growth at 10 µM,"[10]; SK-MEL-28, 48 h, read-out: GI",25.7%
same,inhibition of growth at 10 µM,[11]; read-out: GI,22.4%
same,inhibition of growth at 10 µM,[12],75.8%
same,inhibition of growth at 10 µM,[13],76.5%
same,inhibition of growth at 10 µM,[14],40.1%
same,CC50,[15],> 100 µM
same,inhibition of growth at 10 µM,[16],33.3%
same,IC50,[17],0.72 µM
same,inhibition of growth at 10 µM,[18],63%
same,inhibition of growth at 10 µM,"[19]; NCI-H522, 48 h, read-out: GI",46.5%
same,Ka,[20],4.21 ×10⁴ /M
same,inhibition of growth at 10 µM,[21],33.3%
same,inhibition of growth at 10 µM,[22],63.5%
same,inhibition of growth at 10 µM,[23],29.7%
same,GI50,[24],8.83 µM
same,LC50 (concentration killing 50% of cells),[24],75.7 µM
same,TGI,[24],27.3 µM
same,inhibition of growth at 10 µM,[25],51.7%
same,inhibition of growth at 10 µM,[26],36.3%
same,inhibition of growth at 10 µM,"[27]; 786-0, 48 h, read-out: GI",62.5%
same,inhibition of growth at 10 µM,[28]; read-out: GI,82%
same,inhibition of growth at 10 µM,[29],23.5%
same,inhibition of growth at 10 µM,[30],67.1%
same,inhibition of growth at 10 µM,[31],29.8%
same,inhibition of growth at 10 µM,[32],74.1%
same,inhibition of growth at 10 µM,[33]; read-out: GI,76.7%
same,inhibition of growth at 10 µM,[34],4.89%
same,inhibition of growth at 10 µM,"[35]; MDA-MB-231, 48 h, read-out: GI",30.9%
same,inhibition of growth at 10 µM,[36],44%
same,inhibition of growth at 10 µM,[37],24.8%
same,inhibition of growth at 10 µM,[38],7.68%
same,GI50,[39],3.23 µM
same,LC50,[39],25.3 µM
same,TGI,[39],17 µM
same,inhibition of growth at 10 µM,"[40]; MDA-MB-468, 48 h, read-out: GI",66.8%
Cc1nc2cc(Nc3nc(Nc4ccc(F)cc4)nc(N4CCN(C)CC4)n3)ccc2n1Cc1ccccc1,growth inhibition (GI),[2],Active
same,CC50,[3],8.47 µM
same,inhibition of growth at 10 µM,[4],35%
same,inhibition of growth at 10 µM,[5],83%
same,LC50 (concentration killing 50% of cells),[6],8.47 µM
same,growth inhibition (GI),[7],Active
same,inhibition of growth at 10 µM,[8],96.6%
same,CC50,[9],8.47 µM
same,growth inhibition (GI),[10],Active
same,growth inhibition (GI),[11],Active
same,inhibition of growth at 10 µM,[13],98.9%
same,CC50,[15],8.47 µM
same,inhibition of growth at 10 µM,[16],55.8%
same,IC50,[17],0.31 µM
same,inhibition of growth at 10 µM,[18],99.4%
same,growth inhibition (GI),[19],Active
same,Ka,[20],3.36 ×10⁴ /M
same,inhibition of growth at 10 µM,[23],65.1%
same,GI50,[24],2.16 µM
same,LC50 (concentration killing 50% of cells),[24],15.5 µM
same,TGI,[24],5.25 µM
same,inhibition of growth at 10 µM,[25],75.4%
same,inhibition of growth at 10 µM,[26],85.4%
same,growth inhibition (GI),[27],Active
same,growth inhibition (GI),[28],Active
same,inhibition of growth at 10 µM,[29],29.1%
same,inhibition of growth at 10 µM,[30],82.1%
same,inhibition of growth at 10 µM,[31],81.4%
same,growth inhibition (GI),[33],Active
same,inhibition of growth at 10 µM,[34],31.3%
same,growth inhibition (GI),[35],Active
same,inhibition of growth at 10 µM,[36],70.8%
same,inhibition of growth at 10 µM,[37],83.3%
same,inhibition of growth at 10 µM,[38],41.8%
same,GI50,[39],1.66 µM
same,LC50,[39],7.15 µM
same,TGI,[39],3.44 µM
same,growth inhibition (GI),[40],Active
